Measurements as given in US10336735B2, “Small molecule inhibitors of fibrosis” (THE CALIFORNIA INSTITUTE FOR BIOMEDICAL RESEARCH, priority 2014, dated 2019).

Each molecule was assayed on primary human lung fibroblasts and primary rodent HSCs (assay: High content imaging assay (α-SMA staining, cell morphology) of fibroblast to myofibroblast transdifferentiation, confirmed by Western blot and RT-PCR). Details: Homo sapiens, Fibroblast; imaging and western based activity.
Text: High content imaging assays have been established, using primary human lung fibroblasts and primary rodent HSCs, that enable the identification of small molecules that either inhibit myofibroblast formation/activation or induce the reversion of activated myofibroblasts to a quiescent fibroblast state. Conditions, involving serum starvation and subsequent TGF-β treatment, have been identified that facilitate robust in vitro transdifferentiation in a miniaturized (384 well plate) format that is amenable to high throughput small molecule screening. The inhibition assay is based on α-SMA immunofluorescent staining and cell morphology changes associated with fibroblast to myofibroblast transdifferentiation, Using the selective ALK-5 TGF-β1 receptor inhibitor ([…]) as a positive control, the inhibition assay has been used to initiate a screen of a collection of ˜100,000 small molecules that consists of bioactive small molecules and a diversity set that has been assembled based on 2D and 3D structural diversity and inherent “drug-likeness” properties. Preliminary screening led to the identification of multiple previously identified anti-fibrotic molecules.
A high content imaging assay, based on α-SMA staining and cell morphological changes associated with fibroblast to myofibroblast transdifferentiation, was established using primary human lung fibroblasts and primary rodent HSCs. Conditions, involving serum starvation and subsequent TGF-β treatment, were identified that facilitate robust in vitro transdifferentiation in a miniaturized (384 well plate) format that is amenable to high throughput small molecule screening. A selective ALK-5 TGF-β1 receptor inhibitor (SB-431542) was used as a positive control. […] This assay was used to evaluate compounds of Formula (I), (Ia), (II), (IIa), (III), (IIIa), (IV), (IVa), (IVb), (V), (Va), (VI), (VIa), (VIb), (VIc), (VII), (VIIa), (VIII), (VIIIa), (IX), (IXa), (X), or (Xa) generated from medicinal chemistry efforts.
The activity of Itraconazole and compounds of Formula (I), (Ia), (II), (IIa), (III), (IIIa), (IV), (IVa), (IVb), (V), (Va), (VI), (VIa), (VIb), (VIc), (VII), (VIIa), (VIII), (VIIIa), (IX), (IXa), (X), or (Xa) was confirmed by analyzing changes in gene expression of multiple genes associated with fibroblast to myofibroblast transdifferentiation using biochemical methods (i.e., Western blot and RT-PCR). These 4-day assays were used to evaluate sets of 6 compounds at a time in 4-point dose response fashion.
The EC50 for (imaging and western based) activity is graded as: +++=<500 nM; ++=500 nM to 5 μM; +=5 to 30 μM); −=>30 μM; NT=Not Tested.

Structure (SMILES) | EC50 [nM]
CC(C)n1ncn(-c2ccc(N3CCN(c4ccc(OC[C@@H]5CO[C@@](Cn6nccn6)(c6ccccc6)O5)cc4)CC3)cc2)c1=O [Compound 18] | 5000 to 30000
CCC(C)n1ncn(-c2ccc(N3CCN(c4ccc(OC[C@@H]5CO[C@@](Cn6cccn6)(c6ccccc6)O5)cc4)CC3)cc2)c1=O (stereo partly shown) [Compound 48] | < 500
CCC(C)n1ncn(-c2cccc(N3CCN(c4ccc(OC[C@@H]5CO[C@@](Cn6nccn6)(c6ccc(Cl)cc6Cl)O5)cc4)CC3)c2)c1=O (stereo partly shown) [Compound 77] | > 30000
CCC(C)n1ncn(-c2ccc(N3CCN(c4ccc(OC[C@@H]5CO[C@@](Cn6cccn6)(c6cccc(C(F)(F)F)c6)O5)cc4)CC3)cc2)c1=O (stereo partly shown) [Compound 92] | < 500
CCC(C)n1ncn(-c2ccc(N3CCN(c4ccc(OC[C@@H]5CO[C@@](Cn6cccn6)(c6ccccc6C)O5)cc4)CC3)cc2)c1=O (stereo partly shown) [Compound 95] | < 500
CCC(C)n1ncn(-c2ccc(N3CCN(c4ccc(OC[C@@H]5CO[C@@](Cn6nccn6)(c6ccccc6)O5)cc4F)CC3)cc2)c1=O (stereo partly shown) [Compound 58] | < 500
CCC(C)n1ncn(-c2ccc(N3CCN(c4ccc(OC[C@@H]5CO[C@@](Cc6ccnnc6)(c6ccc(OC)cc6)O5)cc4)CC3)cc2)c1=O (stereo partly shown) [Compound 129] | < 500
CCC(CC)n1ncn(-c2ccc(N3CCN(c4ccc(OC[C@H]5CO[C@](Cn6nccn6)(c6ccccc6)C5)cc4C#N)CC3)cc2)c1=O [Compound 144] | > 30000
CCCC(C)n1ncn(-c2ccc(N3CCN(c4ccc(OC[C@@H]5CO[C@@](Cn6nccn6)(c6ccc(C#N)cc6C)O5)cc4)CC3)cc2)c1=O (stereo partly shown) [Compound 23] | 500 to 5000
CCC(CC)n1ncn(-c2ccc(N3CCN(c4ccc(OC[C@H]5CO[C@](Cn6cccn6)(c6ccc(C#N)cc6C)O5)cc4)CC3)cc2)c1=O [Compound 177] | 500 to 5000
CCC(C)n1ncn(-c2ccc(N3CCN(c4cc(F)c(OC[C@@H]5CO[C@@](Cn6nccn6)(c6ccccc6)O5)c(F)c4)CC3)cc2)c1=O (stereo partly shown) [Compound 62] | 5000 to 30000
CCC(C)n1ncn(-c2ccc(N3CCN(c4ccc(OC[C@@H]5CO[C@@](Cn6nccn6)(c6cccc(Cl)c6Cl)O5)cc4)CC3)cc2)c1=O (stereo partly shown) [Compound 29] | < 500
CC[C@@H](C)n1ncn(-c2ccc(N3CCN(c4ccc(OC[C@H]5CO[C@](Cn6cccn6)(c6ccccc6)O5)cc4)CC3)cc2)c1=O [Compound 171] | < 500
CCC(C)n1ncn(-c2ccc(N3CCCN(c4ccc(OC[C@@H]5CO[C@@](Cn6nccn6)(c6ccc(Cl)cc6Cl)O5)cc4)CC3)cc2)c1=O (stereo partly shown) [Compound 74] | 500 to 5000
CCC(C)n1ncn(-c2ccc(N3CCN(c4ccc(OC[C@@H]5CO[C@](Cc6ccnnc6)(c6ccc(S(C)(=O)=O)cc6)O5)cc4)CC3)cc2)c1=O (stereo partly shown) [Compound 119] | 5000 to 30000
CCC(C)n1ncn(-c2ccc(N3CCN(c4ccc(OC[C@@H]5CO[C@@](Cn6cccn6)(c6ccc(C)cc6)O5)cc4)CC3)cc2)c1=O (stereo partly shown) [Compound 97] | 5000 to 30000
CCC(C)n1ncn(-c2ccc(N3CCN(c4ccc(OC[C@@H]5CO[C@@](Cc6ccnnc6)(c6ccccc6C(F)(F)F)O5)cc4)CC3)cc2)c1=O (stereo partly shown) [Compound 132] | < 500
CCC(C)n1ncn(-c2ccc(N3CCN(c4ccc(OC[C@@H]5CO[C@@](Cn6nccn6)(c6ccccc6)O5)cc4CN)CC3)cc2)c1=O (stereo partly shown) [Compound 67] | 500 to 5000
CCC(C)n1ncn(-c2ccc(N3CCN(c4ccc(OC[C@@H]5CO[C@](Cc6ccnnc6)(c6ccccc6Cl)O5)cc4)CC3)cc2)c1=O (stereo partly shown) [Compound 105] | < 500
CCC(C)n1ncn(-c2ccc(N3CCN(c4ccc(OC[C@@H]5CO[C@@](Cc6ccnnc6)(c6ccccc6Cl)O5)cc4)CC3)cc2)c1=O (stereo partly shown) [Compound 125] | < 500
CCC(C)n1ncn(-c2ccc(N3CCN(c4ccc(OC[C@@H]5CO[C@@](Cn6cccn6)(c6ccc(Cl)c(Cl)c6)O5)cc4)CC3)cc2)c1=O (stereo partly shown) [Compound 84] | 500 to 5000
CCC(CC)n1ncn(-c2ccc(N3CCN(c4ccc(OC[C@@H]5CO[C@@](Cn6nccn6)(c6ccc(Cl)cc6Cl)O5)cc4)CC3)cc2)c1=O [Compound 13] | 500 to 5000
